The record followed here is ChEMBL document CHEMBL5241095, “Developments of CRBN-based PROTACs as potential therapeutic agents” (Eur J Med Chem, 2021).

The term IC50 denotes the concentration needed to halve the response being measured. The Emax is the greatest response seen or fitted, relative to the assay's reference.

The test system of one test is PC-3. Put plainly: Antiproliferative activity against human PC-3 cells assessed as inhibition of cell growth. Format: functional, cell-based.
In test [1] the target is Protein cereblon/Proteasomal ubiquitin receptor ADRM1 (Homo sapiens) (UniProt Q16186+Q96SW2). The test can be described thus: Protac activity at CRBN/Rpn13 in human MM1.S cells measured after 16 hrs by immunoblotting analysis relative to control. Format: cell-based. On the technique in general: Immunoblotting shows a protein as a band on a membrane.
The target in test [2] is Protein cereblon/Retinal rod rhodopsin-sensitive cGMP 3',5'-cyclic phosphodiesterase subunit delta (Homo sapiens) (UniProt O43924+Q96SW2). Put plainly: Protac activity at CRBN/PDE6D in human Jurkat cells at […] incubated for 24 hrs by immunoblotting analysis relative to control. It is filed as cell-based.
The target of test [3] is T1, Protein cereblon/Tyrosine-protein kinase BTK (Homo sapiens, UniProt Q06187+Q96SW2). Put plainly: Protac activity at CRBN/BTK in human MINO cells. Format: cell-based.
Target sequence in this assay (Q06187 whole entry): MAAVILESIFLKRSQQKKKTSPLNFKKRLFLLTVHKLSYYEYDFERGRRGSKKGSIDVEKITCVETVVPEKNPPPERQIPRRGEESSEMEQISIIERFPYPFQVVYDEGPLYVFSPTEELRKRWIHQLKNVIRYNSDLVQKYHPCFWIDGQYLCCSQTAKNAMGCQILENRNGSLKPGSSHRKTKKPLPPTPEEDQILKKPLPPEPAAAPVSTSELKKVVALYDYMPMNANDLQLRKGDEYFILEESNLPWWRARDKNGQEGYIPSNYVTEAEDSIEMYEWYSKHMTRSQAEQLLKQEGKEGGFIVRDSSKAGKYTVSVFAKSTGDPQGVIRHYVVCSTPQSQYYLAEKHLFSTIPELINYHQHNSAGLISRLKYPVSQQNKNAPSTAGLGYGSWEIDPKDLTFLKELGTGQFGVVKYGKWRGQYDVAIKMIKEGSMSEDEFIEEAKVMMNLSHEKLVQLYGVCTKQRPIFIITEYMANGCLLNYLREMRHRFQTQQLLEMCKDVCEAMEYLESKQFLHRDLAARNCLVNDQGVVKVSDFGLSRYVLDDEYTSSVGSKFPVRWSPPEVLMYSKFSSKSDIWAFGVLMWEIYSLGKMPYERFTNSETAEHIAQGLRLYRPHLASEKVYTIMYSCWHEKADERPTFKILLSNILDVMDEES
Target sequence in this assay (Q96SW2 whole entry): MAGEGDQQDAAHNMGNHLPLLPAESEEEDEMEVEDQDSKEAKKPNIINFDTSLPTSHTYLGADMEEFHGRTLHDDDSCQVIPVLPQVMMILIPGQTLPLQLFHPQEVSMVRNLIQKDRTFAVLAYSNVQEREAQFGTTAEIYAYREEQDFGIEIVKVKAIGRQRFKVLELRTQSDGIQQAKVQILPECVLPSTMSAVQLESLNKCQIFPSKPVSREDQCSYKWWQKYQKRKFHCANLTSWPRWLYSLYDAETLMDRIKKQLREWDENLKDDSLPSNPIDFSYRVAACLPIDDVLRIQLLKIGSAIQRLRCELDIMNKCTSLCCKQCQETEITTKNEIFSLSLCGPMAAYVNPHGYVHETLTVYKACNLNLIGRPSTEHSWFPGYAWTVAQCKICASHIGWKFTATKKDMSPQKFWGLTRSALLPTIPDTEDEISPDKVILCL
Test [4] deals with T1, Protein cereblon/Tyrosine-protein kinase BTK. The test can be described thus: Protac activity at CRBN/BTK in human MINO cells relative to control. Format: cell-based.
For test [5], the target named is Protein cereblon/Protein deacetylase HDAC6 (Homo sapiens, UniProt Q9UBN7+Q96SW2). Put plainly: Protac activity at CRBN/HDAC6 in human MM1.S cells incubated for 5 hrs by ELISA analysis. Format: cell-based. Background: ELISA stands for enzyme-linked immunosorbent assay.
Test [6] concerns the target T1, Protein cereblon/Tyrosine-protein kinase BTK. Put plainly: Protac activity at CRBN/BTK in human MOLM-14 cells at 0.2 uM relative to control. It is filed as cell-based.
For a further test, the system named is BXPC-3. Put plainly: Antiproliferative activity against human BXPC-3 cells assessed as cell growth inhibition. Format: functional, cell-based.
For test [7], the target named is T1, Protein cereblon/Tyrosine-protein kinase BTK. The test can be described thus: Protac activity at CRBN/BTK in human Ramos cells incubated for 24 hrs by immunoblotting method. Format: cell-based.
Target sequence in this assay (Q06187 whole entry): as the sequence (Q06187 whole entry) above
Target sequence in this assay (Q96SW2 whole entry): as the sequence (Q96SW2 whole entry) above
Test [8] deals with Protein cereblon/Cyclin-dependent kinase 4 (Homo sapiens) (UniProt P11802+Q96SW2). The test can be described thus: Protac activity at CRBN/CDK4 in human MM1.S cells at […] relative to control. It is filed as cell-based.
Test [9] deals with Protein cereblon/Cyclin-dependent kinase 6 (Homo sapiens) (UniProt Q00534+Q96SW2). The test can be described thus: Protac activity at CRBN/CDK6 in human MM1.S cells at […] relative to control. It is filed as cell-based.
For test [10], the target named is Protein cereblon/Poly [ADP-ribose] polymerase 1 (Homo sapiens) (UniProt P09874+Q96SW2). The test can be described thus: Protac activity at CRBN/PARP1 in human SW620 cells at lower than 100 nM relative to control. Format: cell-based.
The target of test [11] is T2, Protein cereblon/Bcl-2-like protein 1 (Homo sapiens, UniProt Q07817+Q96SW2). The test can be described thus: Protac activity at CRBN/BCL-XL in human WI-38 cells. It is filed as cell-based.
Target sequence in this assay (Q07817 whole entry): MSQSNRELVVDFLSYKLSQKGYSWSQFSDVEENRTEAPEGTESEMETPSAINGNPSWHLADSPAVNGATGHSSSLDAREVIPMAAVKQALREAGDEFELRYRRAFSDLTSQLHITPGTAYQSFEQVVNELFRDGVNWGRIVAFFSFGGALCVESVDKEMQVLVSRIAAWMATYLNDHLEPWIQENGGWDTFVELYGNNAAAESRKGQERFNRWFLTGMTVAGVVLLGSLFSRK
Target sequence in this assay (Q96SW2 whole entry): as the sequence (Q96SW2 whole entry) above
For test [12], the target named is T2, Protein cereblon/Bcl-2-like protein 1. Put plainly: Protac activity at CRBN/BCL-XL in human WI-38 cells relative to control. Format: cell-based.
In test [13] the target is RAC-alpha serine/threonine-protein kinase (Homo sapiens, UniProt P31749). The test can be described thus: Inhibition of Akt1 (unknown origin).
Test [14] concerns the target RAC-gamma serine/threonine-protein kinase (Homo sapiens, UniProt Q9Y243). Put plainly: Inhibition of Akt3 (unknown origin).
Test [15] is described as follows: Antiproliferative activity against human MCL cells assessed as cell growth inhibition. It is filed as functional, cell-based.
The target in test [16] is von Hippel-Lindau disease tumor suppressor/Tyrosine-protein kinase BTK (Homo sapiens, UniProt Q06187+P40337). Put plainly: Protac activity at VHL/BTK in human NAMALVA cells incubated for 24 hrs by immunoblotting method. Format: cell-based.
In test [17] the target is von Hippel-Lindau disease tumor suppressor/Tyrosine-protein kinase BTK (Homo sapiens, UniProt Q06187+P40337, C481S). Put plainly: Protac activity at VHL/BTK C481S mutant in human NAMALVA cells incubated for 24 hrs by immunoblotting method. Format: cell-based.

Protein cereblon/Protein deacetylase HDAC6, sequence (Q9UBN7 whole entry): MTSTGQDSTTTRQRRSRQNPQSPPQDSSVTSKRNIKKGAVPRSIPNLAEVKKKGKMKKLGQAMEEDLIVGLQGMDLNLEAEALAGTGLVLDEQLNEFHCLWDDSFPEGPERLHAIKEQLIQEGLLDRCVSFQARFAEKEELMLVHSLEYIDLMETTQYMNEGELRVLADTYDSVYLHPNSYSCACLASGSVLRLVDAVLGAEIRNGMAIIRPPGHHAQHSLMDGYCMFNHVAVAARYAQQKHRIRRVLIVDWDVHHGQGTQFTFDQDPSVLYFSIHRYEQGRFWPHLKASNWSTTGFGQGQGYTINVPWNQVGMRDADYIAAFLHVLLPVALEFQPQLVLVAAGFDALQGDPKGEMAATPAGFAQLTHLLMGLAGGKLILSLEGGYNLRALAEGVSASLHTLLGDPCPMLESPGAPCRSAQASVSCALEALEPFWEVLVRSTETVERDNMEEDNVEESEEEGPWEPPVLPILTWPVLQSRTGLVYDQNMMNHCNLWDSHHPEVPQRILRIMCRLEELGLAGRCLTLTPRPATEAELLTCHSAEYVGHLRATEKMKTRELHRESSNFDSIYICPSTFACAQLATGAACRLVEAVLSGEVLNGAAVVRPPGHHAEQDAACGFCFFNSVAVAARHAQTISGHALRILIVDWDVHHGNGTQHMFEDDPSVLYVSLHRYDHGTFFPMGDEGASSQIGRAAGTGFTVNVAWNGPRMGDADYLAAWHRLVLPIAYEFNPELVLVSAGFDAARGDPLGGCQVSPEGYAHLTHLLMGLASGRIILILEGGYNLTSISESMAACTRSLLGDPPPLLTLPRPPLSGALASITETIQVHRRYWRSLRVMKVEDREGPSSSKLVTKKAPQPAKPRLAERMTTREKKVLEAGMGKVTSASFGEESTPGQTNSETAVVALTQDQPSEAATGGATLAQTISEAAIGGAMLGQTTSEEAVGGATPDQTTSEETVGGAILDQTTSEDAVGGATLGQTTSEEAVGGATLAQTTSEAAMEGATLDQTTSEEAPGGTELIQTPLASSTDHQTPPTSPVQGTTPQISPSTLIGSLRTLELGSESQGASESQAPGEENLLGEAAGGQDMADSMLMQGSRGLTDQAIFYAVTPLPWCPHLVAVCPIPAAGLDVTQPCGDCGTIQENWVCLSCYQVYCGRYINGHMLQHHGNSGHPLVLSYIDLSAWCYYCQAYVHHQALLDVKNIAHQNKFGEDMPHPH
Protein cereblon/Protein deacetylase HDAC6, sequence (Q96SW2 whole entry): as the sequence (Q96SW2 whole entry) above
Protein cereblon/Proteasomal ubiquitin receptor ADRM1 (Homo sapiens), sequence (Q16186 whole entry, looked up): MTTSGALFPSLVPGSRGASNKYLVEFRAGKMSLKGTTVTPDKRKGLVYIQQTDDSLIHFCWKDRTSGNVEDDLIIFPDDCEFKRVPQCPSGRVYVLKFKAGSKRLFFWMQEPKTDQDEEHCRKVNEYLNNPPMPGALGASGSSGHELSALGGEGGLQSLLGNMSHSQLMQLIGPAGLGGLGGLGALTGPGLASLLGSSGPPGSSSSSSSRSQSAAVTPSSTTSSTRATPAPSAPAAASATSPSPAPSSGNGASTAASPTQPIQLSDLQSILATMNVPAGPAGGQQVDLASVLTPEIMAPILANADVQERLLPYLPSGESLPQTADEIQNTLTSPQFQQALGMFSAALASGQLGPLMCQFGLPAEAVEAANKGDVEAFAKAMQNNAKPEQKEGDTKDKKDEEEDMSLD
Protein cereblon/Proteasomal ubiquitin receptor ADRM1 (Homo sapiens), sequence (Q96SW2 whole entry, looked up): as the sequence (Q96SW2 whole entry) above
Protein cereblon/Retinal rod rhodopsin-sensitive cGMP 3',5'-cyclic phosphodiesterase subunit delta (Homo sapiens), sequence (O43924 whole entry, looked up): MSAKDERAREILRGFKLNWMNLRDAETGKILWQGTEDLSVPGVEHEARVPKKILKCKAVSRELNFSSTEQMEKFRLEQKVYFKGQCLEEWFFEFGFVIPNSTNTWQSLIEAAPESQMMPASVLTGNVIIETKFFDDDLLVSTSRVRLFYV
Protein cereblon/Retinal rod rhodopsin-sensitive cGMP 3',5'-cyclic phosphodiesterase subunit delta (Homo sapiens), sequence (Q96SW2 whole entry, looked up): as the sequence (Q96SW2 whole entry) above

For the compound `COc1cc2nc(N3CCN(C(=O)c4cn(CCCCOCC(=O)Nc5cccc6c5C(=O)N(C5CCC(=O)NC5=O)C6=O)nn4)CC3)nc(N)c2cc1OC` (centres undefined), the IC50 with PC-3 came to 6120 nM.
`O=C1CCC(N2C(=O)c3cccc(NCCOCCOCCOCCC(=O)N[C@@H](Cc4ccccc4)C(=O)C4C/C(=C\c5ccc(Cl)c(Cl)c5)C(=O)/C(=C/c5ccc(Cl)c(Cl)c5)C4)c3C2=O)C(=O)N1` (some centres undefined) yielded an Activity in test [1] of 95%.
Turning to `O=C1CCC(N2C(=O)c3cccc(NCCCCCOCCNC(=O)c4ccc(CN(CC5CCNCC5)Sc5ccc(S(=O)(=O)N(Cc6ccc(Cl)cc6)C6CCCC6)cc5)cc4)c3C2=O)C(=O)N1` (centres undefined), in [2], the Activity was 85%.
Compound `CC(C)(/C=C(\C#N)C(=O)N1CCC[C@@H](n2nc(-c3ccc(Oc4ccccc4)cc3)c3c(N)ncnc32)C1)CCCCCCCCOc1cccc2c1C(=O)N(C1CCC(=O)NC1=O)C2=O` (some centres undefined) returned a DC50 in test [3] of less than 10 nM. This compound displayed an Emax in test [4] of 90%.
In test [5], `CCCCN(Cc1ccc(C(=O)NO)cc1)C(=O)Nc1ccc(OCn2cc(CCCCCCCNCc3ccc(-c4cccc5c4CN(C4CCC(=O)NC4=O)C5=O)cc3)nn2)cc1` (centres undefined) yielded a DC50 of 1.5 nM.
For the compound `CN(CCCNC(=O)CNc1cccc2c1C(=O)N(C1CCC(=O)NC1=O)C2=O)C(C)(C)/C=C(\C#N)C(=O)N1CCC[C@@H](n2nc(-c3ccc(Oc4ccccc4)cc3)c3c(N)ncnc32)C1` (some centres undefined), the Activity in test [6] is 81%.
`CCS(=O)(=O)Nc1ccc(Oc2ccc(F)cc2F)c(-c2cn(C)c(=O)c3[nH]c(C(=O)NCc4cn(CCOCC(=O)Nc5cccc6c5CN(C5CCC(=O)NC5=O)C6=O)nn4)cc23)c1` (centres undefined): in the test on BXPC-3, the IC50 came to 165 nM.
For `NC(=O)c1c(-c2ccc(Oc3ccc(F)cc3F)cc2)nn([C@@H]2CCCN(C(=O)COCCCCCCNc3cccc4c3C(=O)N(C3CCC(=O)NC3=O)C4=O)C2)c1N` (some centres undefined), the DC50 in [7] worked out at 5.9 nM.
Take `CC(=O)c1c(C)c2cnc(Nc3ccc(N4CCN(C(=O)CCCCCNc5cccc6c5C(=O)N(C5CCC(=O)NC5=O)C6=O)CC4)cn3)nc2n(C2CCCC2)c1=O` (centres undefined): the Activity in test [8] was found to be 75%; in test [9], 89%.
For the compound `O=C1CCC(N2Cc3c(NCCCCCCCCCCCNC(=O)c4cc(Cc5n[nH]c(=O)c6ccccc56)ccc4F)cccc3C2=O)C(=O)N1` (centres undefined), the Activity in test [10] worked out at 80%.
Consider `CC1(C)CCC(c2ccc(Cl)cc2)=C(CN2CCN(c3ccc(C(=O)NS(=O)(=O)c4ccc(N[C@H](CCN5CCN(C(=O)CCCn6cc(COCCCNc7cccc8c7C(=O)N(C7CCC(=O)NC7=O)C8=O)nn6)CC5)CSc5ccccc5)c(S(=O)(=O)C(F)(F)F)c4)cc3)CC2)C1` (some centres undefined), for which the DC50 in [11] is 46 nM. This compound also gave an Emax in test [12] of 96.2%.
`C[C@@H]1C[C@@H](O)c2ncnc(N3CCN(C(=O)[C@H](CNCCCCCCCCCCCc4cccc5c4CN(C4CCC(=O)NC4=O)C5=O)c4ccc(Cl)cc4)CC3)c21` (some centres undefined): the IC50 in test [13] stood at 2 nM; in [14], 3.5 nM.
On to `Cc1c(NC(=O)c2ccc(C(C)(C)C)cc2)cccc1-c1cn(C)c(=O)c(Nc2ccc(C(=O)N3CCN(CCCCCCNC(=O)CNc4cccc5c4C(=O)N(C4CCC(=O)NC4=O)C5=O)CC3)cc2)n1` (centres undefined), for which the IC50 in test [15] was determined as 5.1 nM.
As to `Nc1ncnc2c1c(-c1ccc(Oc3ccccc3)cc1)nn2[C@@H]1CCCN(CCOCCOCC(=O)Nc2ccc3c(c2)C(=O)N(C2CCC(=O)NC2=O)C3=O)C1` (some centres undefined), the DC50 in test [16] stood at 14.6 nM; in test [17], 14.9 nM.
